Assay in all cases: relative viability (nuclei count vs DMSO), 5 days (fraction); higher = more cells survive
Compound in the assay “Venetoclax + Bortezomib”: CC1(C)CCC(CN2CCN(c3ccc(C(=O)NS(=O)(=O)c4ccc(NCC5CCOCC5)c([N+](=O)[O-])c4)c(Oc4cnc5[nH]ccc5c4)c3)CC2)=C(c2ccc(Cl)cc2)C1 [Venetoclax] + CC(C)C[C@H](NC(=O)[C@H](Cc1ccccc1)NC(=O)c1cnccn1)B(O)O [Bortezomib] (partner 0.002 µM)
In short, it runs like this: (§1)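 A single step with final 0.05% Triton X-100, 1% formaldehyde and 1 ug/ml Hoechst fixed the cells and stained nuclei 5 days after treatment. Lung cancer cell lines in 1536-well plates had been treated by pin tool the day after seeding with one drug alone or a fixed anchor-drug dose plus five library-drug doses (not always all listed) in √10 steps, and nuclei were counted on 4× images. Relative viability is the ratio of nuclei in treated wells to nuclei in vehicle wells, taken as the median of duplicate plates.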

Compound in the assay “Selumetinib + Alpelisib”: Cn1cnc2c(F)c(Nc3ccc(Br)cc3Cl)c(C(=O)NOCCO)cc21 [Selumetinib] + Cc1nc(NC(=O)N2CCC[C@H]2C(N)=O)sc1-c1ccnc(C(C)(C)C(F)(F)F)c1 [Alpelisib] (partner 2 µM)
In short, it runs like this: as §1

Compound in the assay “Selumetinib + OSI-027”: Cn1cnc2c(F)c(Nc3ccc(Br)cc3Cl)c(C(=O)NOCCO)cc21 [Selumetinib] + COc1cccc2cc(-c3nc([C@H]4CC[C@H](C(=O)O)CC4)n4ncnc(N)c34)[nH]c12 [OSI-027] (partner 0.5 µM)
In short, it runs like this: as §1

Compound in the assay “Venetoclax + Lapatinib”: CC1(C)CCC(CN2CCN(c3ccc(C(=O)NS(=O)(=O)c4ccc(NCC5CCOCC5)c([N+](=O)[O-])c4)c(Oc4cnc5[nH]ccc5c4)c3)CC2)=C(c2ccc(Cl)cc2)C1 [Venetoclax] + CS(=O)(=O)CCNCc1ccc(-c2ccc3ncnc(Nc4ccc(OCc5cccc(F)c5)c(Cl)c4)c3c2)o1 [Lapatinib] (partner 2 µM)
In short, it runs like this: as §1

As for UMC-11, the relative viability with Venetoclax + Bortezomib (first compound 0.01 µM) turned out to be 0.625; with Venetoclax + Bortezomib (first compound 0.03162 µM), 0.889; in the assay with Venetoclax + Bortezomib (first compound 0.1 µM) it was 0.604; with Venetoclax + Bortezomib (first compound 0.3162 µM), 0.732; with Venetoclax + Bortezomib (first compound 1 µM), 0.691; with Selumetinib + Alpelisib (first compound 0.02 µM), 0.97. Also, the relative viability with Selumetinib + Alpelisib (first compound 0.06325 µM) came to 1.1; with Selumetinib + Alpelisib (first compound 0.2 µM), 1.01; with Selumetinib + Alpelisib (first compound 0.6325 µM), 0.986; in the assay with Selumetinib + OSI-027 (first compound 0.02 µM), 0.459; with Selumetinib + OSI-027 (first compound 0.06325 µM) it was 0.471; with Selumetinib + OSI-027 (first compound 0.2 µM), 0.379. For the same cell line, the relative viability stood at 0.45 with Selumetinib + OSI-027 (first compound 0.6325 µM); 0.828 with Venetoclax + Lapatinib (first compound 0.01 µM); 0.942 with Venetoclax + Lapatinib (first compound 0.03162 µM); 0.712 with Venetoclax + Lapatinib (first compound 0.1 µM); 0.928 with Venetoclax + Lapatinib (first compound 0.3162 µM); 0.912 with Venetoclax + Lapatinib (first compound 1 µM).
